Measurements taken from ChEMBL document CHEMBL1201862, “PubChem BioAssay data set” (2004).
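Exposure lasted 48 hours, with cells grown in 96-well plates and compounds tested at five concentrations. At the GI50, growth is halved.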 Activity calls are given as the source filed them. Cut-off read from the data, not from the text of the source: active = GI50 up to about 1.1 µM and inactive = higher.

Legend:
Assay in all cases: growth of human tumour cells (NCI), 48 h
[1] = tested on: CCRF-CEM
[2] = tested on: HL-60
[3] = tested on: HOP-62
[4] = tested on: HT-29
[5] = tested on: KM12
[6] = tested on: LOX IMVI
[7] = tested on: MOLT-4
[8] = tested on: SF-539
[9] = tested on: SK-MEL-2
[10] = tested on: SR
[11] = tested on: TK-10
[12] = tested on: U-251
[13] = tested on: UACC-257
[14] = tested on: UACC-62
[15] = tested on: EKVX
[16] = tested on: SNB-19

Measured: GI50

Cc1nc2ccccc2c(=O)n1NC(=S)Nc1ccccc1
inactive: [1] > 100 µM | [2] > 100 µM | [3] > 100 µM | [4] > 100 µM | [5] > 100 µM | [6] > 100 µM | [7] > 100 µM | [8] > 100 µM | [9] > 100 µM | [10] > 100 µM | [11] > 100 µM | [12] > 100 µM | [13] > 100 µM | [14] > 100 µM

N#CC(C(=O)/C(=N/N)C(C#N)c1ccc(Cl)cc1)c1ccc(Cl)cc1 (configuration not stated)
inactive: [1] > 100 µM | [15] > 100 µM | [2] > 100 µM | [3] > 100 µM | [4] > 100 µM | [5] > 100 µM | [6] > 100 µM | [7] > 100 µM | [8] > 100 µM | [9] > 100 µM | [16] > 100 µM | [11] > 100 µM | [12] > 100 µM | [13] > 100 µM | [14] > 100 µM

CCc1cc(CCC(=O)Nc2ccccc2[N+](=O)[O-])nc(S)n1
inactive: [1] > 100 µM | [15] > 100 µM | [2] > 100 µM | [3] > 100 µM | [4] > 100 µM | [5] > 100 µM | [6] > 100 µM | [7] > 100 µM | [8] > 100 µM | [9] > 100 µM | [16] > 100 µM | [10] > 100 µM | [11] > 100 µM | [12] > 100 µM | [13] > 100 µM | [14] > 100 µM

CCOc1ncnc2ccc(Cl)c(I)c12
inactive: [1] 70.6 µM | [15] 11.2 µM | [2] 38.8 µM | [3] > 100 µM | [4] > 100 µM | [5] 91 µM | [6] 49.4 µM | [9] 53.1 µM | [16] 89.1 µM | [10] 47.2 µM | [11] 62.7 µM | [12] > 100 µM | [13] > 100 µM | [14] 46.5 µM

Clc1ccccc1C1SCc2nc3ccccc3n21 (configuration not stated)
inactive: [1] 30.3 µM | [15] 22.6 µM | [2] 13 µM | [3] 19.3 µM | [4] 29.4 µM | [5] 30.8 µM | [6] 26.4 µM | [7] 23.6 µM | [8] 33.5 µM | [9] 22 µM | [16] 12.4 µM | [10] 19.4 µM | [11] 23 µM | [12] 22.8 µM | [14] > 10 µM

C=C(COC(C)=O)CC(/C=C(\C)CCC=C(C)C)OC(C)=O (configuration not stated)
inactive: [1] 70.5 µM | [15] > 100 µM | [2] 74.5 µM | [3] > 100 µM | [4] > 100 µM | [5] > 100 µM | [6] 32.2 µM | [7] 48.4 µM | [8] > 100 µM | [9] > 100 µM | [16] > 100 µM | [11] > 100 µM | [12] > 100 µM | [14] > 100 µM

CC(C)=CC(=O)C1c2cccc(O)c2C(=O)c2c(O)cc(C)cc21 (configuration not stated)
inactive: [1] 2.55 µM | [15] 12.6 µM | [2] 3.24 µM | [3] 2.86 µM | [4] 6.97 µM | [5] 1.63 µM | [6] 1.86 µM | [7] 4.23 µM | [8] 1.56 µM | [9] 1.98 µM | [16] 2.12 µM | [11] 2.42 µM | [12] 1.73 µM | [13] 2.88 µM

COC(=O)C(C(=O)C(=O)NC1=C(Cl)C(=O)c2ccccc2C1=O)c1csc(-n2nc(-c3ccccc3)cc2-c2ccccc2)n1 (configuration not stated)
inactive: [1] 31 µM | [15] 9.66 µM | [2] > 100 µM | [3] > 100 µM | [4] 20.7 µM | [5] > 100 µM | [6] > 100 µM | [7] > 100 µM | [16] > 100 µM | [10] > 100 µM | [11] > 100 µM | [12] > 100 µM | [13] > 100 µM | [14] 44.1 µM

COC1OC(COCc2ccc(Cl)cc2)C(OCc2ccc(Cl)cc2)C1O (configuration not stated)
inactive: [1] 19.4 µM | [15] 19.4 µM | [2] 11.6 µM | [3] 17.5 µM | [4] 17.9 µM | [5] 15 µM | [6] 16.9 µM | [7] 20.2 µM | [8] 16.3 µM | [9] 16.3 µM | [16] 18 µM | [11] 25.5 µM | [12] 15.6 µM | [13] 16.3 µM | [14] 16.2 µM

CCCCCCC(C)OC(=O)/C=C(\CC(=O)OC(C)CCCCCC)C(=O)OC(C)CCCCCC (configuration not stated)
inactive: [15] > 100 µM | [2] > 100 µM | [3] > 100 µM | [4] > 100 µM | [6] > 100 µM | [7] > 100 µM | [8] > 100 µM | [9] > 100 µM | [11] > 100 µM | [12] > 100 µM | [13] > 100 µM | [14] > 100 µM

O=C(CCn1[nH]c(=O)c(Cl)c(Cl)c1=O)NO
inactive: [1] > 100 µM | [15] > 100 µM | [2] > 100 µM | [3] > 100 µM | [4] > 100 µM | [5] > 100 µM | [6] > 100 µM | [7] > 100 µM | [8] > 100 µM | [9] > 100 µM | [16] > 100 µM | [11] > 100 µM | [12] > 100 µM | [13] > 100 µM | [14] > 100 µM

C=C(CS(=O)(=O)c1ccccc1)[P+](c1ccccc1)(c1ccccc1)c1ccccc1
inactive: [1] 5.22 µM | [15] 30.4 µM | [2] 9.16 µM | [3] 28.1 µM | [4] 18.2 µM | [5] 14.7 µM | [6] 13.5 µM | [7] 16.6 µM | [8] 23.5 µM | [9] > 100 µM | [16] 28.4 µM | [11] 31.4 µM | [12] > 10 µM | [13] 8.93 µM | [14] 22.9 µM

COC12OCCN(CCO)C1=CC(=O)C1(C)N=NC(C)C12 (configuration not stated)
inactive: [1] > 100 µM | [15] > 100 µM | [4] > 100 µM | [5] > 100 µM | [6] > 100 µM | [7] > 100 µM | [8] > 100 µM | [11] > 100 µM | [12] > 100 µM | [13] > 100 µM | [14] > 100 µM

COc1ccc2nc(NC(=O)C(=O)CC(=O)c3ccc(Cl)cc3)sc2c1
inactive: [1] > 100 µM | [15] 48.1 µM | [2] > 100 µM | [3] > 100 µM | [4] > 100 µM | [5] 35.1 µM | [7] > 100 µM | [8] 17.3 µM | [9] > 100 µM | [16] 95.5 µM | [10] > 100 µM | [11] > 100 µM | [12] 48.4 µM | [13] > 100 µM | [14] 68.7 µM

CSCC1CC(c2ccc(Cl)cc2)=NO1 (configuration not stated)
inactive: [1] > 100 µM | [15] > 100 µM | [2] > 100 µM | [3] > 100 µM | [4] > 100 µM | [5] > 100 µM | [7] > 100 µM | [8] > 100 µM | [9] > 100 µM | [10] > 100 µM | [11] > 100 µM | [12] > 100 µM | [13] > 100 µM | [14] > 100 µM

OC/C=C(\I)CCCOCOCc1ccccc1
inactive: [1] 20.7 µM | [15] 36.5 µM | [2] 15.9 µM | [3] 42.5 µM | [4] 36.2 µM | [5] > 100 µM | [6] 19.2 µM | [7] 3.1 µM | [8] 50.6 µM | [9] 19.2 µM | [16] 52.8 µM | [11] > 100 µM | [12] 23.4 µM | [14] 34.6 µM

O=c1oc2c3ccc4ccccc4c3n(CCN3CCOCC3)c2c2ccccc12
inactive: [1] 1.48 µM | [15] 14.8 µM | [2] 87.9 µM | [3] 26.4 µM | [4] 27.4 µM | [5] > 100 µM | [6] 4.06 µM | [7] 1.69 µM | [8] 3.76 µM | [16] > 100 µM | [10] 1.15 µM | [11] > 100 µM | [13] > 100 µM | [14] 3.68 µM

COc1ccc(/N=N/c2c(-c3ccccc3)nn(C(=O)CC(=O)Nc3ccccc3Cl)c2-c2ccccc2)cc1
inactive: [1] 30.8 µM | [15] > 100 µM | [2] 22.6 µM | [3] > 100 µM | [4] 47.1 µM | [5] 87.1 µM | [6] > 100 µM | [7] 3.42 µM | [8] > 100 µM | [16] > 100 µM | [10] 2.82 µM | [11] 77.6 µM | [12] > 100 µM | [13] > 100 µM | [14] > 100 µM

COc1ccc(NC(=O)c2cc(OC)cc(OC)c2)cc1
inactive: [1] 27.9 µM | [15] 24.2 µM | [2] 6.98 µM | [3] > 36.5 µM | [4] 4.49 µM | [5] 4.49 µM | [6] 17.6 µM | [7] 14.8 µM | [8] 25.1 µM | [9] 25.9 µM | [16] > 60.8 µM | [10] 11.6 µM | [11] 43.7 µM | [12] 17.5 µM | [13] 98.4 µM | [14] 11.3 µM
